Data published in US20230414657A1, “Novel compositions for neutralizing toxic effects of hydrogen peroxide in living cells or tissues” (Dzala LLC, priority 2020, published 2023).
Read-outs that look alike come from different tables or passages of the source.

Experiments:
C. elegans [1] = assay: Oxygen consumption rate (OCR), Seahorse XFe96; assay type: in vivo
Procedure: Oxygen consumption of worms was measured with a Seahorse XFe96 system (Seahorse Bioscience, North Billerica, MA), as previously described^4. L3 larvae of the different strains were grown on plates or in liquid culture and supplemented for 2-4 days as described for each experiment. After removing bacteria and debris, approximately 100 worms were pipetted into each well of a 96-well Seahorse XF^e assay plate and OCR was measured until it stabilized. Then, 3 subsequent measurements were made at 6.5-min intervals. Finally, the exact number of worms in each well was counted and used for normalization. A small number of abnormal readings were also filtered out at this stage. On average, 7-8 wells (technical replicates) were used for each condition. Normalized OCR values were averaged for the last 3 measurements for each strain and condition. Four biological replicates were analyzed for each condition.

C. elegans [2] = assay type: in vivo
Procedure: Mitochondrial staining was performed as described previously^3,4. Briefly, L1 worms were grown on plate or in liquid culture for 2-3 days at 15° C. […] Next, the excess dye was washed off with M9 buffer and worms were incubated in 100 μl M9 for 30 min to eliminate the excess dye in the gut. Finally, worms were paralyzed with 0.5 mM Levamizol (Sigma-Aldrich), placed on slides covered with a thin layer of 2% agarose on top of which the coverslip (22×22 mm, Menzel-Glaser no. 1) was fixed using nail polish. We used a Zeiss LSM 700 inverted laser scanning confocal microscope and a Zeiss LCI Plan-Neofluar 63×/1.3 ImmCorr DIC M27 objective to image mitochondria (Zeiss, Germany). MitoTracker Red CMXRos was excited at 555 nm and the emission above 560 nm was acquired by the second PMT. Optical sections at 0.1×0.1×0.5 μm^3 x-y-z resolution were collected in […]. Final images were adjusted for intensity and merged in Fiji. No non-linear adjustments were made.

C. elegans [3] = assay: H2O2 accumulation in worms (Amplex Red); assay type: in vivo; details: peroxide + GA with glutathione synthesis blocked by BSO
Procedure: Hydrogen peroxide was measured using the Amplex Red hydrogen peroxide/peroxidase assay kit (Molecular Probes, Eugene, OR), adapting the protocol to C. elegans. In the presence of hydrogen peroxide, Amplex Red is oxidized by horseradish peroxidase to form a red-fluorescent oxidation product whose fluorescence intensity can be measured.
To measure ROS production from C. elegans, 5000-7000 L1 worms were exposed to each condition for 2-3 days as indicated and then washed four times in 1 ml of the reaction buffer supplied with the kit. Volumes were adjusted to 700-1200 nematodes/50 μl and 50 μl was pipetted into a 96-well plate. A total of 50 μl of the Amplex Red reaction buffer was then added to the wells, and after 1 hr fluorescence was measured with a fluorescence microplate reader using excitation at 530±12.5 nm and fluorescence detection at 590±17.5 nm. Background fluorescence, determined for a no-H2O2 control reaction, was subtracted from each value. The significance of differences between conditions was determined by an unpaired fest. GraphPadPrism 8.0 was used for these calculations. Three biological replicates were carried out for each condition.

C. elegans [4] = assay: Growth rate / worm size; assay type: in vivo; details: for Growth: 100 mM H2O2 plus supplement (10 mM GA, 100 μM glycine or 500 μM L-serine)
Procedure: (§1) Synchronized L1 worms were incubated at 15° C. on plates or in liquid culture and exposed to different conditions as indicated. Single worms were selected randomly from the plates or aliquots were taken from the liquid cultures and added to NGM plates for immediate visualization. 25 worms per treatment were measured at 24-48 hr intervals and all growth curves were done four times.

C. elegans [5] = assay: Quantification of glutathione (GSH/GSSG-Glo); assay type: in vivo; details: for GSH-to-GSSG ratio: plus supplement; for GSH/GSSG ratio: H2O2-treated worms plus 100 μM glycine or 500 μM L-serine
Procedure: Sample preparation was performed as described previously with some modifications^6. From each condition 10,000 synchronized animals were harvested and washed 3 times with sterile water. […] To thoroughly lyse the worms, 5 cycles of freezing and thawing were performed in a water bath at 37° C., followed by a 1-min sonication. The samples were then centrifuged and the supernatant tested for protein estimation and GSH quantification. Total GSH, GSSG, and GSH/GSSG ratios were quantified using the GSH/GSSG-Glo assay kit (Promega) following the instructions of the manufacturer. Briefly, each sample was tested in triplicate in 96-well culture plates with total glutathione or GSSG lysis reagent, for total glutathione or GSSG measurement, respectively. The GSH probe, luciferin-NT, was converted to luciferin, which is coupled to a firefly luciferase. The plates were then read in an […] plate reader (Perkin Elmer, United States). The GSSG value was subtracted from the total glutathione to calculate GSH levels and GSH/GSSG ratio. Four biological replicates were analyzed for each condition.

C. elegans [6] = assay: Peroxide treatment of mutant, RNAi or unstressed worms: MMP, OCR and growth read together; assay type: in vivo; details: for Restoration of MMP, OCR or growth rate: H2O2, RNAi against mel-32 or gcst-1; for MMP, OCR, growth rate: H2O2, worms fed with empty vector RNAi bacteria; for Response to glycine and L-serine: ghpr-1 and ghpr-1, ldh-1, gox-1 mutants fed with mel-32 RNAi bacteria; for Deleterious effects of peroxide (MMP, respiration, size): ghpr-1 single and ghpr-1, gox-1, ldh-1 triple mutants, H2O2 plus glycine or L-serine
Excerpt: C. elegans wild-type (N2) strain was received from Caenorhabditis Genetics Center, USA. Mutant strains were generated using the following primers. Idh-1: […] and […]; C31C9.2 (ghpr-1): […] and […]and F41E6.5 (gox-1): […]and[…]. […] Progeny of the rescued strains were genotyped for homozygous deletion with PCR primers for three generations. All mutants were outcrossed at least twice with the wild type to eliminate background mutations. Double and triple mutants were obtained by crossing single or double mutants and selecting the homozygous progeny by PCR.
For RNAi experiments in liquid, E. coli HT115 containing L4440 empty vector or the indicated cDNA fragment in L4440 was inoculated in 100 ml of LB containing 100 μg/ml ampicillin and incubated overnight at 37° C. in a shaking incubator at 250 rpm. To induce the production of dsRNA, a final concentration 0.8 mM IPTG was added to the collected bacterial pellet diluted 100-fold and incubated overnight at 25° C. in a shaking incubator at 250 rpm. Bacteria were then pelleted by centrifugation at 4000 rpm for 5 mins and resuspended in 200 μl S-medium containing 100 μg/ml ampicillin and 0.8 mM IPTG.
A population of synchronized L1 larvae was added to 30-ml glass tubes containing 2.5 ml of S-complete medium (liquid culture)^2 and NA22 or induced RNAi bacteria at an OD600 of 1.9. […] Worms were incubated at 15° C. and 150 rpm in a shaking incubator for 2-6 days, refreshing the medium every 2 days.
Mitochondrial staining was performed as described previously^3,4. Briefly, L1 worms were grown on plate or in liquid culture for 2-3 days at 15° C. Subsequently, they were pelleted in a 15-ml tube, rinsed twice with H2O and resuspended in 100 μl of M9. 5 μM MitoTracker Red CMXRos (Thermo Fisher Scientific, Germany) in DMSO was added to the worm suspension and incubated in this solution for 1.5 hr at room temperature in the dark. Next, the excess dye was washed off with M9 buffer and worms were incubated in 100 μl M9 for 30 min to eliminate the excess dye in the gut. Finally, worms were paralyzed with 0.5 mM Levamizol (Sigma-Aldrich), placed on slides covered with a thin layer of 2% agarose on top of which the coverslip (22×22 mm, Menzel-Glaser no. 1) was fixed using nail polish. We used a Zeiss LSM 700 inverted laser scanning confocal microscope and a Zeiss LCI Plan-Neofluar 63×/1.3 ImmCorr DIC M27 objective to image mitochondria (Zeiss, Germany). MitoTracker Red CMXRos was excited at 555 nm and the emission above 560 nm was acquired by the second PMT. Optical sections at 0.1×0.1×0.5 μm^3 x-y-z resolution were collected in a 4D hyperstack. Final images were adjusted for intensity and merged in Fiji. No non-linear adjustments were made.
as §1, with “times. Images were analyzed using FIJI (Image J) software, with length measurements derived by the sum-total of a number of segmented lines of known length, down the center of the worm as described previously^5.” for “times.”
Oxygen consumption of worms was measured with a Seahorse XFe96 system (Seahorse Bioscience, North Billerica, MA), as previously described^4. L3 larvae of the different strains were grown on plates or in liquid culture and supplemented for 2-4 days as described for each experiment. After removing bacteria and debris, approximately 100 worms were pipetted into each well of a 96-well Seahorse XF^e assay plate and OCR was measured until it stabilized. Then, 3 subsequent measurements were made at 6.5-min intervals. Finally, the exact number of worms in each well was counted and used for normalization.

C. elegans [7] = details: in vivo, 3 days
Procedure: To quantify the uptake of glycolate, glycine and L-serine approximately 10000 synchronized L1 were incubated in liquid cultures as described above and grown for 3 days in the presence of […] of [1-^14C]-glycolate, [1-^14C]-glycine or L-[1-^14C]-serine. At this stage, worms were snap-frozen and stored at […]. Animals were lysed by freezing/thawing and extracted by using the Bligh and Dyer method^7. After phase separation, organic and aqueous fractions were recovered from the lower and upper phases, respectively. After drying and concentration, radioactivity was quantified using a scintillation counter and normalized for total number of worms.

C. elegans [8] = assay: NADPH and NADP+ quantification by LC-MS; assay type: in vivo; details: 100 mM H2O2 plus 10 mM glycolate, 100 μM glycine or 500 μM L-serine, 3 days
Procedure: To measure NADP^+ and NADPH from C. elegans, 10000-15000 L1 worms were exposed to each condition in duplicates for 3 days and then washed four times with H2O. […] 25 µM solutions of each nucleotide were treated in parallel as standards. Homogenization for 15 min at 4° C. and 300 g was carried out in a TissueLyser II (Qiagen) after adding ⅓ volume of 0.5 mm zirconium beads. The resulting mixture was centrifuged at 13,000 g and the supernatant transferred to a new tube.
LC-MS/MS analysis of the samples was performed on a high-performance liquid chromatography (HPLC) system (1200 Agilent) coupled online to G2-S QTOF (Waters). For normal phase chromatography Bridge Amide 3.5 ml (2.1×100 mm) column from Waters was used. The mobile phase composed of eluent A and eluent B (40% acetonitrile, 0.1 mM ammonium acetate and 0.01% NH40H) was applied with the following gradient program: Eluent B, from 0% to 100% within 18 min; 100% from 18 min to 21 min; 0% from 21 min to 26 min. The flow rate was set at 0.3 ml/min. The spray voltage was set at 3.0 kV and the source temperature was set at 120° C. Nitrogen was used as both cone gas (50 L/h) and desolvation gas (800 L/h), and argon as the collision gas. MS^E mode was used with Bridge Amide 3.5 µl (2.1×100 mm) column in ESI negative ionization polarity for the detection of the nucleosides. Mass chromatograms and mass spectral data were acquired and processed by MassLynx software (Waters). Three and four biological replicates were analyzed for each condition of mel-32 RNAi and EV, respectively.

[9] = 100 mM H2O2 plus supplement (10 mM GA, 100 μM glycine or 500 μM L-serine)
[10] = H2O2-treated animals defective in mel-32 or gcst-1 (RNAi)
[11] = H2O2-treated worms fed with empty vector

Radioactivity in labelled animals (uptake) relative to [14C]GA (C. elegans [7])	SMILES	Respiration rate (OCR) (C. elegans [1]; H2O2 + GA + BSO (0.5 mM))	Mitochondrial membrane potential (MMP) (C. elegans [2]; H2O2 + GA + BSO (0.5 mM))	Accumulation of H2O2 (C. elegans [3])	Growth rate (C. elegans [4]; H2O2 + GA + BSO (0.5 mM))	Biosynthesis of glutathione (C. elegans [5]; 0.5 mM BSO, FIG. 2)	GSH/GSSG per worm (C. elegans [5]; H2O2 + GA + BSO, control 107.5)	Total glutathione (C. elegans [5]; H2O2 + GA + inhibitor BSO)	Respiration rate (OCR) (C. elegans [1]; [9])	Restoration of MMP, OCR or growth rate (C. elegans [6])	MMP, OCR, growth rate (C. elegans [6])	Response to glycine and L-serine (C. elegans [6])	Deleterious effects of peroxide (MMP, respiration, size) (C. elegans [6])	Mitochondrial membrane potential (MMP) (C. elegans [2]; [9])	Growth (C. elegans [4])	GSH-to-GSSG ratio (C. elegans [5]; [10])	GSH-to-GSSG ratio (C. elegans [5]; [11])	GSH/GSSG ratio (C. elegans [5])	Ratio of NADPH to NADP+ (C. elegans [8])
	CCCCS(=N)(=O)CCC(N)C(=O)O [BSO, L-buthioninesulfoximine, reference compound]	prevented the GA-mediated improvement	prevented the GA-mediated improvement	unchanged	prevented the GA-mediated improvement	inhibited	36	65 % of the control											
3 times higher	N[C@@H](CO)C(=O)O [L-serine]								able to restore	none of these three compounds were able to restore	restored parameters	loss of response	overcome the deleterious effects of peroxide	able to restore	able to restore	strongly reduced	maintained close to control levels	able to restore	much weaker, but still significant, increase
	NCC(=O)O [glycine]								able to restore	none of these three compounds were able to restore	restored parameters	loss of response	overcome the deleterious effects of peroxide	able to restore	able to restore	strongly reduced	maintained close to control levels	able to restore	fully rescued
